Experimental data as given in US20240400542A1 (University of Virginia Patent Foundation, priority 2021, published 2024).

Key:
Test in all cases: SILAC competitive chemical proteomic assay (TH211 probe, LC-MS/MS)
Assay type in all cases: cell-based
[1] = target: T1, Proteasome subunit alpha type-2 (Homo sapiens, UniProt P25787); details: TH207 inhibitor; HEK293T soluble fraction; P25787.2 lysine 92
T1 construct: endogenous in cells; host or cells: HEK293T
Experimental: (§1) The light and heavy proteomes (2.3 mg/mL, 432 μL) prepared from HEK293T cells that were pretreated in situ with vehicle (DMSO) or the inhibitor (2 μM), respectively, at 37° C. for 1 hr followed by probe TH211 treatment (50 μM) for 2 h, were directly were subjected to click reaction with the desthiobiotin-PEG3-azide (10 mM in DMSO, 10 μL, final concentration 200 μM) in the presence of TCEP (50 mM, 10 μL), TBTA (1.7 mM, 33 μL) and CuSO4 (50 mM, 10 μL) at room temperature for 1 hr. The light and the heavy samples were mixed in the chloroform-methanol extraction step. The subsequent steps including reduction with dithiothreitol, alkylation with iodoacetamide, digestion with Trypsin/Lys-C, enrichment with avidin beads were conducted as previously described^26.

Sorting nexin-6 = target: T2, Sorting nexin-6 (Homo sapiens, UniProt Q9UNH7); details: TH207 inhibitor; HEK293T soluble fraction; Q9UNH7.1 lysine 204
T2 construct: endogenous in cells; host or cells: HEK293T
T2 sequence (Q9UNH7 1-406): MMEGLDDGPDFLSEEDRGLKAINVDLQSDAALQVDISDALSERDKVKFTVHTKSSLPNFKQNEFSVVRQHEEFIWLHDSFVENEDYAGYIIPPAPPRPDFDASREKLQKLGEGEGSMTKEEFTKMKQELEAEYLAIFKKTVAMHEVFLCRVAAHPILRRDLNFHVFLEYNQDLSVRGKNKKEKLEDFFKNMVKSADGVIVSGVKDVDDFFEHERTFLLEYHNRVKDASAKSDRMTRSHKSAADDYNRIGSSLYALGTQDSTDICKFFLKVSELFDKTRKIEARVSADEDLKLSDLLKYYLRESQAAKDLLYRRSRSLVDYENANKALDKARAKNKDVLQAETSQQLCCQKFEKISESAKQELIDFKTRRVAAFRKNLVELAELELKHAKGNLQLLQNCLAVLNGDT
Experimental: as §1

Isoleucine tRNA ligase = target: T3, Isoleucine tRNA ligase (Homo sapiens, UniProt Q9NSE4); details: TH207 inhibitor; HEK293T soluble fraction; Q9NSE4.2 tyrosine 260
T3 construct: endogenous in cells; host or cells: HEK293T
T3 sequence (Q9NSE4 49-1012): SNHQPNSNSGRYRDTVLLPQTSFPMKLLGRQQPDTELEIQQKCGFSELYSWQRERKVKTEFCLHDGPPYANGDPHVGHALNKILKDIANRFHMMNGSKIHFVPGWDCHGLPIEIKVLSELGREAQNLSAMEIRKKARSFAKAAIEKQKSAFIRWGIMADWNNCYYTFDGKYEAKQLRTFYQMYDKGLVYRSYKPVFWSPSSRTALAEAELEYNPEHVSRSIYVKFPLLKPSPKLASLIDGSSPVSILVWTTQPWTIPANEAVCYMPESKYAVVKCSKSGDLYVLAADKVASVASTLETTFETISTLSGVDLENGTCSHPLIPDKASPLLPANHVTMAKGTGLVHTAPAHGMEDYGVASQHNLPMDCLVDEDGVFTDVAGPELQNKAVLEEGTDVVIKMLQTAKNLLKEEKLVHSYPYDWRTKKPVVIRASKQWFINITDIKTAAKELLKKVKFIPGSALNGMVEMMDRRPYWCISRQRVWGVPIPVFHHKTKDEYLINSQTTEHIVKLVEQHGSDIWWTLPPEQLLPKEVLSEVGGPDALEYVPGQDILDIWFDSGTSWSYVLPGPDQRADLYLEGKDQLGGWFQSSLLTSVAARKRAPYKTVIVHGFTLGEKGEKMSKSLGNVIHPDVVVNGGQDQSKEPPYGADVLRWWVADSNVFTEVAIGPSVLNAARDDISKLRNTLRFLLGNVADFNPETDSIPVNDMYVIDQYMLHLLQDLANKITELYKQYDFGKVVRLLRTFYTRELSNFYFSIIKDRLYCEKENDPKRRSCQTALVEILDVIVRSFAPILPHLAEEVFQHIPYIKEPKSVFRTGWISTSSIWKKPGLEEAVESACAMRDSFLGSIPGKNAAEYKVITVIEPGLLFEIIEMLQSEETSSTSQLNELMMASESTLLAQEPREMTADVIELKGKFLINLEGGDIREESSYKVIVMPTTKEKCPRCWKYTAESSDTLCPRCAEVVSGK
Experimental: as §1

14-3-3 protein epsilon = target: T4, 14-3-3 protein epsilon (Homo sapiens, UniProt P62258); details: TH207 inhibitor; HEK293T soluble fraction; P62258.1 lysine 215
T4 construct: endogenous in cells; host or cells: HEK293T
T4 sequence (P62258 1-255): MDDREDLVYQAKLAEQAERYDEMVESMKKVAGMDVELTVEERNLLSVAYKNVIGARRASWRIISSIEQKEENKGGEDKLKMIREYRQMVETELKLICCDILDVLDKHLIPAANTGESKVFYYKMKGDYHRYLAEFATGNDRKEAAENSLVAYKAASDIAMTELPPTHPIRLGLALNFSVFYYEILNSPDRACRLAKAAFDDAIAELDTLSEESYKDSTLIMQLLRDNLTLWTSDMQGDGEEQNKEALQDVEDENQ
Experimental: as §1

Cytochrome c = target: T5, Cytochrome c (Homo sapiens, UniProt P99999); details: TH207 inhibitor, HEK293T soluble fraction
T5 construct: endogenous in cells; host or cells: HEK293T
T5 sequence (P99999 whole entry): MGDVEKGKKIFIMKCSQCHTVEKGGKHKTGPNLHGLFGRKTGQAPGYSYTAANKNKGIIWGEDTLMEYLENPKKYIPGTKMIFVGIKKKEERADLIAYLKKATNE
Experimental: as §1

[2] = target: T6, Phosphatidylinositol transfer protein beta isoform (Homo sapiens, UniProt P48739); details: TH207 inhibitor, HEK293T soluble fraction
T6 construct: endogenous in cells; host or cells: HEK293T
T6 sequence (P48739 1-271): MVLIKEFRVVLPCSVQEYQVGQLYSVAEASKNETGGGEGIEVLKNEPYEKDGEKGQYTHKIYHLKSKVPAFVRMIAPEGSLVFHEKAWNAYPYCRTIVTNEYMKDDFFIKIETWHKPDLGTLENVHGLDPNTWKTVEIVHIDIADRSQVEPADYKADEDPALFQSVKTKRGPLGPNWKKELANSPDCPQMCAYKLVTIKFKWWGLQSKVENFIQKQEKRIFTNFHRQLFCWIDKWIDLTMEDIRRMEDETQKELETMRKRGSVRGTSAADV
Experimental: as §1

Coronin-1C = target: T7, Coronin-1C (Homo sapiens, UniProt Q9ULV4); details: TH207 inhibitor; HEK293T soluble fraction; Q9ULV4.1 tyrosine 301
T7 construct: endogenous in cells; host or cells: HEK293T
T7 sequence (Q9ULV4 whole entry): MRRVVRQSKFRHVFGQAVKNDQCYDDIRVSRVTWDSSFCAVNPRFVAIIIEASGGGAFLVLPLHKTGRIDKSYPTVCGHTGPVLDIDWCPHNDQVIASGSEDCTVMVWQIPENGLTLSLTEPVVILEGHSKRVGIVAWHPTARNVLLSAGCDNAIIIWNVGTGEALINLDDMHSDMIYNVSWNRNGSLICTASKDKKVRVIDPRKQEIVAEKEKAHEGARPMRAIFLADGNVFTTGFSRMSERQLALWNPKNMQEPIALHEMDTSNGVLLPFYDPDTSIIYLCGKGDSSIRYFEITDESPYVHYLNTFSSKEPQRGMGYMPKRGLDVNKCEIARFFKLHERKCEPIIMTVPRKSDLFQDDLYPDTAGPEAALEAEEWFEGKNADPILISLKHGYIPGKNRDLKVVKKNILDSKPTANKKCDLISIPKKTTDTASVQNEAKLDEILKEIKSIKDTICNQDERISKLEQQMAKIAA
Experimental: as §1

Cc1ccc(S(=O)(=O)n2cc(CCN3CCC(=C(c4ccc(F)cc4)c4ccc(F)cc4)CC3)nn2)cc1 [TH207, 4-(Bis(4-fluorophenyl)methylene)-1-(2-(1-tosyl-1H-1,2,3-triazol-4-yl)ethyl)piperidine]
Normalized SILAC ratio (SR), Proteasome subunit alpha type-2 K92 [1]: 1.2
Normalized SILAC ratio (SR), Sorting nexin-6 K204 (Sorting nexin-6): 6.9
Normalized SILAC ratio (SR), Isoleucine tRNA ligase Y260 (Isoleucine tRNA ligase): 1.8
Normalized SILAC ratio (SR), 14-3-3 protein epsilon K215 (14-3-3 protein epsilon): 3.7
Normalized SILAC ratio (SR), Cytochrome c K28 (Cytochrome c; P99999.2 lysine 28): 1.4
Normalized SILAC ratio (SR), Cytochrome c K40 (Cytochrome c; P99999.2 lysine 40): 1.5
Normalized SILAC ratio (SR), Cytochrome c K54 (Cytochrome c; P99999.2 lysine 54): 1.8
Normalized SILAC ratio (SR), Cytochrome c Y49 (Cytochrome c; P99999.2 tyrosine 49): 1.5
Normalized SILAC ratio (SR), Phosphatidylinositol transfer protein beta isoform K155 ([2]; P48739.2 lysine 155): 1.8
Normalized SILAC ratio (SR), Phosphatidylinositol transfer protein beta isoform Y154 ([2]; P48739.2 tyrosine 154): 1.8
Normalized SILAC ratio (SR), Coronin-1C Y301 (Coronin-1C): 20
